From US20160022810A1, “Method for Treating Cancers by Alternating Immunotherapeutics and Directly Oncolytic Therapeutics” (priority 2014, published 2016)

Tests used:
4T1 breast cancer cells [1] = test: visible lung metastases, CATS versus paclitaxel (FIG. 7); type: in vivo, BALB/c mice; conditions: two boluses separated by 2 days; 100 micrograms
From the text: This reflects into a much stronger anti-metastatic activity (FIG. 7) of CATS™ over paclitaxel, that translates to survival benefits. In this study, 40 BALB/c mice were orthotopically implanted in the mammary pad on Day 0 with 1×10^4 4T1 breast cancer cells. When tumor volume approximated 200 mm^3 (on Day 17), mice were randomly distributed into four cohorts of ten mice each. […] Mice were sacrificed when tumor diameter reached 14 mm (Day 30), at which time mice were euthanized, lungs removed, and visible lung metastases were quantitated by a second observer blinded to the treatment protocols. Floating bars depict maximum and minimum number of metastases each cohort, horizontal line indicates mean±SE.

4T1 cells = test: survival with CATS alternating with cyclophosphamide (FIG. 10); type: in vivo, mice; conditions: cyclophosphamide alone 80 mg/kg ip, two boluses over 48 hours from Day 20, then weekly
Protocol: This Kaplan-Meier graph plots survival of three groups of mice (10/cohort) implanted with 1×10^4 4T1 cells on Day 0 and initiated to treatment on Day 20 with two bolus doses over the first 48 hours, and thereafter once weekly of either placebo (blue, 50 ng IV), cyclophosphamide (Cy, orange, 80 mg/kg ip) or alternating therapy (CATS/Cy, green, 50 ng IV CATS™ boluses or every other week, alternating every other week with Cy 80 mg/kg). In this trial 100% of mice treated with CATS™ alternating therapy survived 75 days, at which time the trial was terminated.

4T1 breast cancer cells [2] = test: survival with single regimen, cyclophosphamide or CATS (FIG. 8); type: in vivo; conditions: 80 mg/kg ip weekly from Day 16; no mice survived beyond; control 37 days
Protocol: Thirty mice were orthotopically implanted with 5×10^4 4T1 breast cancer cells in their mammary fat pad on Day 0. On Day 16, mice were randomized into three cohorts of ten mice each to receive weekly doses of either carrier control (Brown line, Placebo, 25 ng iv), cyclophosphamide cytotoxic drug (CD) chemotherapy (Green line, CD, 80 mg/kg ip) or CATS™ immunotherapy (Purple line, 25 ng iv). Kaplan-Meier curves analyzing surviving mice in each cohort show no mice survived beyond 37 days in the control group, or 46 days in the CD group, while 4 of 10 mice were alive at day 62 in the CATS™ treatment group.

Structure (SMILES)	tolerability of consolidation dosing (4T1 breast cancer cells [1])	survival at Day 40 (4T1 cells)	longest survival (4T1 breast cancer cells [2]) [days]
CC(=O)O[C@H]1C(=O)[C@@]2(C)[C@H]([C@H](OC(=O)c3ccccc3)[C@]3(O)C[C@H](OC(=O)[C@H](O)[C@@H](NC(=O)c4ccccc4)c4ccccc4)C(C)=C1C3(C)C)[C@]1(OC(C)=O)CO[C@@H]1C[C@@H]2O [Taxol, paclitaxel]	toxic		
O=P1(N(CCCl)CCCl)NCCCO1 (stereo not drawn) [cyclophosphamide]		all of the mice receiving cyclophosphamide alone were dead	≤ 46
